Data on four molecules can be found in patent EP2296651B1, “5-HYDROXYMETHYL-OXAZOLIDIN-2-ONE DERIVATIVES FOR TREATING BACTERIAL INTESTINAL DISEASES” (Actelion Pharmaceuticals Ltd., priority 2008, dated 2009).

Test [1] has as its system C. difficile A-1050 (ATCC 43596). Description: Spore formation at sub-MIC concentrations. The following applies: 0.5x the MIC; 4 days anaerobic incubation at 37°C. The test is classed as cell-based.
Test [2] relates to C. difficile strain NC 13366. The test is classed as cell-based.
In another test the test system is E. faecium H 7965. Description: Broth microdilution MIC, aerobic Gram-positive bacteria. The following applies: Enterococcus faecium, H7965, 48 h. Background: In broth dilution the organism is exposed to a series of concentrations in liquid medium.
For another test, the system named is S. aureus S1 (LZD-R). Described as above. Conditions: Staphylococcus aureus, 48 h.
For another test, the system named is E. faecium H 9070. The description is as above. Conditions: Enterococcus faecium, H9070, 48 h.
Another test has as its system E. faecium A 962. The test is described as above. The following applies: Enterococcus faecium, A962, 48 h.
The test system of a further test is E. faecalis H 7094. The test is described as above. Conditions: Enterococcus faecalis, H7094, 48 h.
The subject of the next test is S. aureus A-798 (MRSA). Described as above. The following applies: Staphylococcus aureus, 48 h.
For the next test, the system named is E. faecium H 7969. Described as above. Conditions: Enterococcus faecium, H7969, 48 h.
For test [3], the system named is C. difficile strain NC 13366. Description: microbe, parasite or virus in culture. The test is classed as cell-based.
Another test has as its system E. faecalis H 7460. The experiment in a line: Broth microdilution MIC, aerobic Gram-positive bacteria. The following applies: Enterococcus faecalis, H7460, 48 h.
For the next test, the system named is E. faecium H 7937. Described as above. The following applies: Enterococcus faecium, H7937, 48 h.
The next test concerns E. faecium A 949. The description is as above. The following applies: Enterococcus faecium, A949, 48 h.
Test [4] has as its system S. aureus ATCC 43300 (MRSA). The test is described as above. The following applies: Staphylococcus aureus, 48 h.
The subject of a further test is E. faecalis H 4060. The description is as above. The following applies: Enterococcus faecalis, H4060, 48 h.
For another test, the system named is E. faecalis ATCC 29212. Described as above. The following applies: Enterococcus faecalis, ATCC29212, 48 h.
The test system of another test is E. faecalis H 6897. The test is described as above. Conditions: Enterococcus faecalis, H6897, 48 h.
Test [5] has as its system 209 diverse clinical isolates of C. difficile. Description: CLSI agar dilution MIC, clinical isolates. The format is cell-based, Clostridium difficile. The following applies: Clostridioides difficile, 48 h. A general note: In agar dilution the substance is mixed into plates at graded concentrations.
For the next test, the system named is E. faecium ATCC 19434. The experiment in a line: Broth microdilution MIC, aerobic Gram-positive bacteria. The following applies: Enterococcus faecium, ATCC19434, 48 h.
The subject of another test is S. aureus ATCC 29213. Described as above. Conditions: Staphylococcus aureus, ATCC29213, 48 h.
The test system of another test is E. faecium L1 (LZD-R). The test is described as above. The following applies: Enterococcus faecium, 48 h.
In another test the test system is E. faecalis H 6279. The description is as above. Conditions: Enterococcus faecalis, H6279, 48 h.
The test system of a further test is E. faecium H 7966. The test is described as above. Conditions: Enterococcus faecium, H7966, 48 h.
The next test relates to C. perfringens DSM 756. The experiment in a line: microbe, parasite or virus in culture. The format is cell-based. Conditions: Clostridium perfringens, DSM756, 48 h, read-out: MIC regarding C. perfringens DSM 756.
Another test concerns C. difficile NC 13366. Description: Broth microdilution MIC, anaerobic. Conditions: Clostridioides difficile, NC13366, 48h at 37°C, quinolone-resistant hypervirulent strain, read-out: MIC regarding C. difficile NC 13366. The test is classed as cell-based, Clostridium difficile.
The subject of another test is C. difficile ATCC 43596. The experiment in a line: Broth microdilution MIC, anaerobic. The format is cell-based, Clostridium difficile. Conditions: Clostridioides difficile, ATCC43596, 48h at 37°C, read-out: MIC regarding C. difficile ATCC 43596.
The test system of a further test is C. difficile ATCC 9689. Description: Broth microdilution MIC, anaerobic. The test is classed as cell-based, Clostridium difficile. Conditions: Clostridioides difficile, ATCC9689, 48h at 37°C, read-out: MIC regarding C. difficile ATCC 9689.

Each structure is given as a SMILES string. Converted amounts (≈) assume the structure as drawn. Read-outs that look alike come from different tables or passages of the source.

For `Cc1ncc([N+](=O)[O-])n1CCO` [metronidazole], the “spores of total cell count” value in test [1] is given as more than 90%. For the same molecule, the “de novo toxin A production” value in test [2] (1 and 8 µg/ml, supernatants at day 5, high density stationary phase cultures) is “did not inhibit toxin A production under these conditions or did so only weakly”.

What is called MIC90 is the lowest concentration that inhibits either 90% of growth or 90% of the strains tested, depending on the study. For the molecule `CN[C@H](CC(C)C)C(=O)N[C@H]1C(=O)N[C@@H](CC(N)=O)C(=O)N[C@H]2C(=O)N[C@H]3C(=O)N[C@H](C(=O)N[C@H](C(=O)O)c4cc(O)cc(O)c4-c4cc3ccc4O)[C@H](O)c3ccc(c(Cl)c3)Oc3cc2cc(c3O[C@@H]2O[C@H](CO)[C@@H](O)[C@H](O)[C@H]2O[C@H]2C[C@](C)(N)[C@H](O)[C@H](C)O2)Oc2ccc(cc2Cl)[C@H]1O` [vancomycin], the MIC against E. faecium H 7965 is more than 32 µg/mL; with S. aureus S1 (LZD-R) it was 1 µg/mL (≈ 0.69 µM); with E. faecium H 9070, more than 32 µg/mL; against E. faecium A 962 it was more than 32 µg/mL; against E. faecalis H 7094, more than 32 µg/mL; against S. aureus A-798 (MRSA) it was 1 µg/mL (≈ 0.69 µM). The MIC was more than 32 µg/mL with E. faecium H 7969; more than 32 µg/mL in the test on E. faecalis H 7460; more than 32 µg/mL in the test with E. faecium H 7937; more than 32 µg/mL in the test with E. faecium A 949; 1 µg/mL (≈ 0.69 µM) in [4]; more than 32 µg/mL against E. faecalis H 4060. In addition, the MIC against E. faecalis ATCC 29212 was 1 µg/mL (≈ 0.69 µM); against E. faecalis H 6897, more than 32 µg/mL; with E. faecium ATCC 19434 it was 1 µg/mL (≈ 0.69 µM); against S. aureus ATCC 29213 it was 1 µg/mL (≈ 0.69 µM); with E. faecium L1 (LZD-R), 0.5 µg/mL (≈ 0.345 µM); in the test on E. faecalis H 6279 it was more than 32 µg/mL. This molecule had an MIC against E. faecium H 7966 of more than 32 µg/mL. Moreover, the “toxin B activities of the supernatants, reduction compared to the untreated control” value in [3] is “not reduced”. The inhibition at 8 µg/mL in [3] (Clostridioides difficile, NC13366, CHO, 120 h, read-out: toxin B activities of the supernatants, reduction compared to the untreated control) was 30%. Also, the “spores of total cell count” value in test [1] is more than 90%. In addition, the MIC90 in test [5] was determined as 2 µg/mL (≈ 1.38 µM). For the same molecule, in [2], the “de novo toxin A production” value was “did not inhibit toxin A production under these conditions or did so only weakly”.

In the case of `O=C(O)c1cn(C2CC2)c2nc(N3CCC(O)(COc4ccc(N5C[C@H](CO)OC5=O)cc4F)CC3)c(F)cc2c1=O` [Example 2, 1-cyclopropyl-6-fluoro-7-{4-[2-fluoro-4-((R)-5-hydroxymethyl-2-oxo-oxazolidin-3-yl)phenoxymethyl]-4-hydroxy-piperidin-1-yl}-4-oxo-1,4-dihydro-[1,8]naphthyridine-3-carboxylic acid], the results for the MIC with C. perfringens DSM 756, in the test on C. difficile NC 13366 and in the test on C. difficile ATCC 43596 were not above 0.03 µg/mL, 0.03 µg/mL (≈ 0.0511 µM) and 0.06 µg/mL (≈ 0.102 µM), respectively.

As for `CC(=O)NC[C@H]1CN(c2ccc(N3CCOCC3)c(F)c2)C(=O)O1` [Linezolid], the MIC is 4 µg/mL (≈ 11.9 µM) in the test with C. perfringens DSM 756; 2 µg/mL (≈ 5.93 µM) against E. faecium H 7965; more than 32 µg/mL in the test on S. aureus S1 (LZD-R); 2 µg/mL (≈ 5.93 µM) against E. faecium H 9070; 4 µg/mL (≈ 11.9 µM) with E. faecium A 962; 1 µg/mL (≈ 2.96 µM) in the test with C. difficile NC 13366. In addition, the MIC was determined as 4 µg/mL (≈ 11.9 µM) in the test on E. faecalis H 7094; 2 µg/mL (≈ 5.93 µM) in the test on S. aureus A-798 (MRSA); 4 µg/mL (≈ 11.9 µM) against E. faecium H 7969; 2 µg/mL (≈ 5.93 µM) in the test with C. difficile ATCC 9689; 16 µg/mL (≈ 47.4 µM) against E. faecalis H 7460; 1 µg/mL (≈ 2.96 µM) in the test on E. faecium H 7937. For the same molecule, the MIC against E. faecium A 949 was found to be 2 µg/mL (≈ 5.93 µM); in test [4], 2 µg/mL (≈ 5.93 µM); against E. faecalis H 4060 it was 2 µg/mL (≈ 5.93 µM); against E. faecalis ATCC 29212, 2 µg/mL (≈ 5.93 µM); against E. faecalis H 6897, 4 µg/mL (≈ 11.9 µM); against E. faecium ATCC 19434, 2 µg/mL (≈ 5.93 µM). For the same molecule, the MIC is 2 µg/mL (≈ 5.93 µM) in the test with S. aureus ATCC 29213; more than 32 µg/mL in the test with E. faecium L1 (LZD-R); 2 µg/mL (≈ 5.93 µM) in the test on E. faecalis H 6279; 8 µg/mL (≈ 23.7 µM) in the test on C. difficile ATCC 43596; 1 µg/mL (≈ 2.96 µM) against E. faecium H 7966. Besides, in test [5] (209 clinical isolates of C. difficile, read-out: MIC90), the MIC90 was found to be 8 µg/mL (≈ 23.7 µM).
